One molecule from patent US20180200368A1, “DISRUPTION OR ALTERATION OF MICROBIOLOGICAL FILMS” (UNIVERSITEIT GENT, priority 2015, published 2018) can be followed below.

What all share (assay): Bacterial viability of biofilm after VNB cluster disruption and tobramycin treatment
Format in all cases: cell-based

Test [1] relates to Pseudomonas aeruginosa LESB58 biofilms. Here is the method: (§1) In the study, the synergistic effect of vapour nanobubble mediated cluster disruption and antibiotic treatment was evaluated for 3 types of bacteria. As gram-negatives, Burkholderia multivorans LMG18825 and Pseudomonas aeruginosa LESB58 were selected. Staphylococcus aureus Mu50, often implicated in skin and soft tissue infections, was chosen as a challenging representative of gram-positive bacteria. AuNPs were evaluated for achieving efficient loading and disruption of biofilm clusters. […] The Bacteria are stained with SYTO59 and the gold particles were detected by reflection of the laser light.
(§2) In further experiments, the synergistic effect of VNB biofilm cluster disruption with relevant antibiotics or disinfectants is evaluated. The biofilm first received a laser treatment for cluster disruption, followed by treatment with tobramycin. Proper controls were taken into account: untreated control, only AuNPs, only laser treatment, VNBs only, AuNPs with tobramycin. Each location in the biofilm received a single 7 ns pulse of 561 nm laser light (2.8 J/cm2) followed by Tobramycin treatment at 32 μg/mL, 16 μg/mL and 1024 μg/mL for Burkholderia multivorans, Pseudomonas aeruginosa and Staphylococcus aureus biofilms, respectively. […]
In another experiment, the effect of applying different laser pulses on the biofilm was evaluated. […]

Test [2] has as its system Staphylococcus aureus Mu50 biofilms. The following applies: 70 nm AuNPs + single 7 ns pulse of 561 nm laser (2.8 J/cm2), then tobramycin 1024 μg/mL for 24 hours at 37° C. Here is the method:
as §1
as §2, with “respectively. The bacterial viability following vapour nanobubble generation and antibiotic treatment is shown in FIG. 5 The different experiments are as follows:” for “respectively.”

The test system of test [3] is Burkholderia multivorans LMG18825 biofilms. As to conditions: 70 nm AuNPs + single 7 ns pulse of 561 nm laser (2.8 J/cm2), then tobramycin 32 μg/mL for 24 hours at 37° C.; vs tobramycin alone. Here is the method:
as §1
as §2, with “respectively. The bacterial viability following vapour nanobubble generation and antibiotic treatment is shown in FIG. 5 The different experiments are as follows:” for “respectively.”

On to `NC[C@H]1O[C@H](O[C@H]2[C@H](O)[C@@H](O[C@H]3O[C@H](CO)[C@@H](O)[C@H](N)[C@H]3O)[C@H](N)C[C@@H]2N)[C@H](N)C[C@@H]1O` [tobramycin], for which the “CFU decrease in comparison with treatment with tobramycin alone” value in test [1] (10 laser pulses of 7 ns of 561 nm (2.8 J/cm2) per location (10× VNB formation), then tobramycin for 24 hours at 37° C.) is around 4000 times. Also, the “CFU decrease of combined VNB-tobramycin treatment as compared to tobramycin alone” value in test [1] (70 nm AuNPs + single 7 ns pulse of 561 nm laser (2.8 J/cm2), then tobramycin 16 μg/mL for 24 hours at 37° C.) is on record as around 20 times; in test [2], around 10 times. Further, in test [3], the “increased eradication potency of tobramycin by use of VNBs” value is recorded as around 50 times.
